We go through eight cell lines from the supplement of paper PMC10307832.

Holding throughout (test): relative viability (nuclei count vs DMSO), 5 days (fraction); higher = more cells survive
Compound in the experiment “Pemetrexed + Olaparib”: Nc1nc2[nH]cc(CCc3ccc(C(=O)N[C@@H](CCC(=O)O)C(=O)O)cc3)c2c(=O)[nH]1 [Pemetrexed] + O=C(c1cc(Cc2n[nH]c(=O)c3ccccc23)ccc1F)N1CCN(C(=O)C2CC2)CC1 [Olaparib] (partner 8 µM)
The method in brief:
(§1)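 Lung cancer cell lines in 1536-well plates were dosed by pin tool the day after seeding, either with one drug alone or with a fixed anchor-drug dose plus five library-drug doses (not always all listed) in √10 steps. After 5 days, cells were fixed and their nuclei stained in one step (final 0.05% Triton X-100, 1% formaldehyde, 1 ug/ml Hoechst), then counted on 4× images. Relative viability is the nuclei count in treated wells divided by that in vehicle wells. Values are medians of duplicate plates.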

Compound in the experiment “Pemetrexed + Tozasertib”: Nc1nc2[nH]cc(CCc3ccc(C(=O)N[C@@H](CCC(=O)O)C(=O)O)cc3)c2c(=O)[nH]1 [Pemetrexed] + Cc1cc(Nc2cc(N3CCN(C)CC3)nc(Sc3ccc(NC(=O)C4CC4)cc3)n2)n[nH]1 [Tozasertib] (partner 0.1 µM)
An outline of the steps: as §1

Compound in the experiment “Pemetrexed + Trametinib”: Nc1nc2[nH]cc(CCc3ccc(C(=O)N[C@@H](CCC(=O)O)C(=O)O)cc3)c2c(=O)[nH]1 [Pemetrexed] + CC(=O)Nc1cccc(-n2c(=O)n(C3CC3)c(=O)c3c(Nc4ccc(I)cc4F)n(C)c(=O)c(C)c32)c1 [Trametinib] (partner 0.02 µM)
An outline of the steps: as §1

Compound in the experiment “Idelalisib + Foretinib”: CC[C@H](Nc1ncnc2[nH]cnc12)c1nc2cccc(F)c2c(=O)n1-c1ccccc1 [Idelalisib] + COc1cc2c(Oc3ccc(NC(=O)C4(C(=O)Nc5ccc(F)cc5)CC4)cc3F)ccnc2cc1OCCCN1CCOCC1 [Foretinib] (partner 0.25 µM)
An outline of the steps:
as §1

In the case of NCI-H1648, the relative viability with Pemetrexed + Olaparib (first compound 0.002 µM) worked out at 0.953; in the experiment with Pemetrexed + Olaparib (first compound 0.006325 µM), 0.926; with Pemetrexed + Olaparib (first compound 0.02 µM) it was 0.768; in the experiment with Pemetrexed + Olaparib (first compound 0.06325 µM), 0.732; with Pemetrexed + Olaparib (first compound 0.2 µM) it was 0.766; with Pemetrexed + Tozasertib (first compound 0.002 µM) it was 0.531. Also, the relative viability with Pemetrexed + Tozasertib (first compound 0.006325 µM) worked out at 0.486; in the experiment with Pemetrexed + Tozasertib (first compound 0.02 µM), 0.595; with Pemetrexed + Tozasertib (first compound 0.2 µM), 0.542; in the experiment with Pemetrexed + Trametinib (first compound 0.002 µM), 0.517; with Pemetrexed + Trametinib (first compound 0.006325 µM), 0.292; with Pemetrexed + Trametinib (first compound 0.02 µM), 0.63. For the same cell line, the figures for the relative viability with Pemetrexed + Trametinib (first compound 0.06325 µM) and with Pemetrexed + Trametinib (first compound 0.2 µM) were 0.398 and 0.442, respectively.

For the cell line NCI-H1793, the relative viability with Idelalisib + Foretinib (first compound 0.04 µM) is 0.764; with Idelalisib + Foretinib (first compound 0.1265 µM), 0.54; in the experiment with Idelalisib + Foretinib (first compound 0.4 µM), 0.381; with Idelalisib + Foretinib (first compound 1.265 µM), 0.685; with Idelalisib + Foretinib (first compound 4 µM), 0.409; with Pemetrexed + Olaparib (first compound 0.002 µM), 0.868. For the same cell line, the relative viability with Pemetrexed + Olaparib (first compound 0.006325 µM) is 0.712; with Pemetrexed + Olaparib (first compound 0.02 µM), 0.912; with Pemetrexed + Olaparib (first compound 0.06325 µM) it was 0.919; with Pemetrexed + Olaparib (first compound 0.2 µM), 0.774; with Pemetrexed + Tozasertib (first compound 0.002 µM), 0.3; in the experiment with Pemetrexed + Tozasertib (first compound 0.006325 µM), 0.286. For the same cell line, the relative viability with Pemetrexed + Tozasertib (first compound 0.02 µM) turned out to be 0.402; with Pemetrexed + Tozasertib (first compound 0.06325 µM), 0.323; in the experiment with Pemetrexed + Tozasertib (first compound 0.2 µM), 0.403; with Pemetrexed + Trametinib (first compound 0.002 µM), 0.411; with Pemetrexed + Trametinib (first compound 0.006325 µM), 0.323; with Pemetrexed + Trametinib (first compound 0.02 µM), 0.381. Moreover, the relative viability with Pemetrexed + Trametinib (first compound 0.06325 µM) amounted to 0.423; in the experiment with Pemetrexed + Trametinib (first compound 0.2 µM) it was 0.424.

NCI-H1299: the relative viability stood at 1.14 with Idelalisib + Foretinib (first compound 0.04 µM); 1.16 with Idelalisib + Foretinib (first compound 0.1265 µM); 1.11 in the experiment with Idelalisib + Foretinib (first compound 0.4 µM); 1.16 with Idelalisib + Foretinib (first compound 1.265 µM); 1.2 with Idelalisib + Foretinib (first compound 4 µM); 0.967 with Pemetrexed + Olaparib (first compound 0.002 µM). The relative viability with Pemetrexed + Olaparib (first compound 0.006325 µM) came out at 0.913; with Pemetrexed + Olaparib (first compound 0.02 µM) it was 0.949; with Pemetrexed + Olaparib (first compound 0.06325 µM), 0.956; with Pemetrexed + Olaparib (first compound 0.2 µM), 0.983.

Turning to LCLC-97TM1, the relative viability turned out to be 1.1 with Idelalisib + Foretinib (first compound 0.04 µM); 0.961 with Idelalisib + Foretinib (first compound 0.1265 µM); 0.877 with Idelalisib + Foretinib (first compound 0.4 µM); 1.03 with Idelalisib + Foretinib (first compound 1.265 µM); 0.776 in the experiment with Idelalisib + Foretinib (first compound 4 µM); 0.442 in the experiment with Pemetrexed + Olaparib (first compound 0.002 µM). Besides, the relative viability with Pemetrexed + Olaparib (first compound 0.006325 µM) was determined as 0.327; with Pemetrexed + Olaparib (first compound 0.02 µM), 0.457; in the experiment with Pemetrexed + Olaparib (first compound 0.06325 µM), 0.426; with Pemetrexed + Olaparib (first compound 0.2 µM), 0.411; with Pemetrexed + Tozasertib (first compound 0.002 µM) it was 0.184; in the experiment with Pemetrexed + Tozasertib (first compound 0.006325 µM), 0.245. The relative viability with Pemetrexed + Tozasertib (first compound 0.02 µM) is 0.315; in the experiment with Pemetrexed + Tozasertib (first compound 0.06325 µM), 0.254; with Pemetrexed + Tozasertib (first compound 0.2 µM), 0.284; with Pemetrexed + Trametinib (first compound 0.002 µM) it was 0.21; with Pemetrexed + Trametinib (first compound 0.006325 µM) it was 0.189; with Pemetrexed + Trametinib (first compound 0.02 µM), 0.179. Moreover, the relative viability with Pemetrexed + Trametinib (first compound 0.06325 µM) is 0.211; in the experiment with Pemetrexed + Trametinib (first compound 0.2 µM), 0.184.

Regarding NCI-H1915, the relative viability amounted to 1.15 with Idelalisib + Foretinib (first compound 0.04 µM); 1.1 in the experiment with Idelalisib + Foretinib (first compound 0.1265 µM); 1.09 in the experiment with Idelalisib + Foretinib (first compound 0.4 µM); 1.19 with Idelalisib + Foretinib (first compound 1.265 µM); 1.09 with Idelalisib + Foretinib (first compound 4 µM); 0.243 with Pemetrexed + Olaparib (first compound 0.002 µM). Further, the relative viability in the experiment with Pemetrexed + Olaparib (first compound 0.006325 µM) worked out at 0.277; with Pemetrexed + Olaparib (first compound 0.02 µM), 0.274; with Pemetrexed + Olaparib (first compound 0.06325 µM), 0.238; with Pemetrexed + Olaparib (first compound 0.2 µM) it was 0.274; with Pemetrexed + Tozasertib (first compound 0.002 µM) it was 0.403; in the experiment with Pemetrexed + Tozasertib (first compound 0.006325 µM), 0.439. Besides, the relative viability with Pemetrexed + Tozasertib (first compound 0.02 µM) was 0.45; with Pemetrexed + Tozasertib (first compound 0.06325 µM), 0.417; with Pemetrexed + Tozasertib (first compound 0.2 µM), 0.425; in the experiment with Pemetrexed + Trametinib (first compound 0.002 µM), 0.287; in the experiment with Pemetrexed + Trametinib (first compound 0.006325 µM), 0.294; with Pemetrexed + Trametinib (first compound 0.02 µM), 0.248. Further, the figures for the relative viability with Pemetrexed + Trametinib (first compound 0.06325 µM) and with Pemetrexed + Trametinib (first compound 0.2 µM) were 0.306 and 0.283, respectively.

As to NCI-H661, the relative viability in the experiment with Idelalisib + Foretinib (first compound 0.04 µM) was 1.12; in the experiment with Idelalisib + Foretinib (first compound 0.1265 µM), 1.06; in the experiment with Idelalisib + Foretinib (first compound 0.4 µM) it was 1.02; with Idelalisib + Foretinib (first compound 1.265 µM), 1.01; with Idelalisib + Foretinib (first compound 4 µM), 1.02; in the experiment with Pemetrexed + Olaparib (first compound 0.002 µM), 0.741. Further, the relative viability with Pemetrexed + Olaparib (first compound 0.006325 µM) worked out at 0.743; in the experiment with Pemetrexed + Olaparib (first compound 0.02 µM), 0.71; with Pemetrexed + Olaparib (first compound 0.06325 µM), 0.759; with Pemetrexed + Olaparib (first compound 0.2 µM) it was 0.679; in the experiment with Pemetrexed + Tozasertib (first compound 0.002 µM), 0.368; in the experiment with Pemetrexed + Tozasertib (first compound 0.006325 µM), 0.325. The relative viability was determined as 0.349 in the experiment with Pemetrexed + Tozasertib (first compound 0.02 µM); 0.348 with Pemetrexed + Tozasertib (first compound 0.06325 µM); 0.351 with Pemetrexed + Tozasertib (first compound 0.2 µM); 0.659 in the experiment with Pemetrexed + Trametinib (first compound 0.002 µM); 0.524 with Pemetrexed + Trametinib (first compound 0.006325 µM); 0.705 with Pemetrexed + Trametinib (first compound 0.02 µM). The relative viability with Pemetrexed + Trametinib (first compound 0.06325 µM) is 0.549; in the experiment with Pemetrexed + Trametinib (first compound 0.2 µM), 0.571.

Turning to NCI-H2405, the relative viability with Idelalisib + Foretinib (first compound 0.04 µM) worked out at 1.11; in the experiment with Idelalisib + Foretinib (first compound 0.1265 µM), 1.06; in the experiment with Idelalisib + Foretinib (first compound 0.4 µM), 0.952; with Idelalisib + Foretinib (first compound 1.265 µM) it was 1.01; with Idelalisib + Foretinib (first compound 4 µM) it was 0.956; with Pemetrexed + Olaparib (first compound 0.002 µM), 0.793. In addition, the relative viability with Pemetrexed + Olaparib (first compound 0.006325 µM) came out at 0.821; with Pemetrexed + Olaparib (first compound 0.02 µM), 0.885; with Pemetrexed + Olaparib (first compound 0.06325 µM), 0.846; with Pemetrexed + Olaparib (first compound 0.2 µM), 0.862; with Pemetrexed + Tozasertib (first compound 0.002 µM), 0.75; in the experiment with Pemetrexed + Tozasertib (first compound 0.006325 µM), 0.738. Besides, the relative viability in the experiment with Pemetrexed + Tozasertib (first compound 0.02 µM) is 0.832; in the experiment with Pemetrexed + Tozasertib (first compound 0.06325 µM), 0.778; in the experiment with Pemetrexed + Tozasertib (first compound 0.2 µM) it was 0.694; with Pemetrexed + Trametinib (first compound 0.002 µM), 0.735; with Pemetrexed + Trametinib (first compound 0.006325 µM), 0.589; in the experiment with Pemetrexed + Trametinib (first compound 0.02 µM) it was 0.66. For the same cell line, the relative viability with Pemetrexed + Trametinib (first compound 0.06325 µM) is 0.582; with Pemetrexed + Trametinib (first compound 0.2 µM) it was 0.653.

NCI-H2347: the relative viability with Idelalisib + Foretinib (first compound 0.04 µM) worked out at 0.845; with Idelalisib + Foretinib (first compound 0.1265 µM), 0.701; in the experiment with Idelalisib + Foretinib (first compound 0.4 µM), 0.818; in the experiment with Idelalisib + Foretinib (first compound 1.265 µM), 1.12; in the experiment with Idelalisib + Foretinib (first compound 4 µM), 0.664; with Pemetrexed + Olaparib (first compound 0.002 µM), 0.55. The relative viability in the experiment with Pemetrexed + Olaparib (first compound 0.006325 µM) amounted to 0.527; with Pemetrexed + Olaparib (first compound 0.02 µM), 0.678; with Pemetrexed + Olaparib (first compound 0.06325 µM) it was 0.517; with Pemetrexed + Olaparib (first compound 0.2 µM), 0.499; with Pemetrexed + Tozasertib (first compound 0.002 µM), 0.337; with Pemetrexed + Tozasertib (first compound 0.006325 µM) it was 0.516. The relative viability with Pemetrexed + Tozasertib (first compound 0.02 µM) is 0.595; with Pemetrexed + Tozasertib (first compound 0.06325 µM), 0.589; in the experiment with Pemetrexed + Tozasertib (first compound 0.2 µM), 0.356; in the experiment with Pemetrexed + Trametinib (first compound 0.002 µM), 0.282; with Pemetrexed + Trametinib (first compound 0.006325 µM) it was 0.376; with Pemetrexed + Trametinib (first compound 0.02 µM), 0.246. For the same cell line, the figures for the relative viability in the experiment with Pemetrexed + Trametinib (first compound 0.06325 µM) and in the experiment with Pemetrexed + Trametinib (first compound 0.2 µM) were 0.287 and 0.28, respectively.
